According to US20230159484A1, “FLUORESCENT DYES HAVING HIGH STOKES SHIFT, ON THE BASIS OF BRIDGED BENZOPYRYLIUM SALTS” (DYOMICS GmbH, priority 2020, published 2023):
Values joined by “and” are separate entries in the source; they are usually repeats but may differ in a detail not shown here. Equal entries are not always repeated.

Key:
[1] = Fluorescence emission (emission maximum); format: physicochemical
Procedure: (§1) Depending on the basic structure and substitution, the absorption maxima lie in the entire range of visible light, with a focus at 500-530 nm. The compounds show a high Stokes shift in the range of 80 nm. The absorption is measured, for example, at 25° C. in aqueous or ethanolic solutions with an extinction of 1.0 using a Specord 205 from Analytik Jena, wherein the aqueous solutions are preferably phosphate-buffered salt solutions (PBS buffer; approx. 100 mM sodium chloride and 100 mM total phosphate) and have a pH of 7.5. For example, the emission is measured at 25° C. in dilute aqueous or ethanolic solutions with an extinction of 0.1 using a FP-6600 spectrofluorometer from Jasco, wherein the dilute aqueous solutions are preferably phosphate-buffered salt solutions (PBS buffer; about 100 mM sodium chloride and 100 mM total phosphate) and have a pH of 7.5.

[2] = UV-Vis absorption (absorption maximum, extinction coefficient); format: physicochemical
Procedure: as §1

Row | Structure (SMILES) | λem ([1]; in ethanol) | λmax ([2]; UV-Vis in ethanol) | ε ([2]; UV-Vis in ethanol) | λem ([1]; in PBS) | ε ([2]; UV-Vis in PBS) | λmax ([2]; UV-Vis in PBS)
1 | CCOC1=Cc2[o+]c3cc(N(CC)CC)ccc3cc2C(C)(C)C1.F[B-](F)(F)F [Compound 2, 6-ethoxy-N,N-diethyl-8,8-dimethyl-7H-xanthene-10-ium-3-amine tetrafluoroborate] | 605 nm | 531 nm | – | – | – | –
2 | CC1(C)CC(NCCCS(=O)(=O)[O-])=Cc2[o+]c3cc(N(CCCCCC(=O)ON4C(=O)CCC4=O)CCCS(=O)(=O)[O-])ccc3cc21.[Na+] [Compound 6, 3-[[6-[[6-(2,5-dioxopyrrolidine-1-yl)oxy-6-oxo-hexyl]-(3-sulfonatopropyl)amino]-1,1-dimethyl-2H-xanthene-10-ium-3-yl]amino]propane-1-sulfonate Sodium Salt] | 570 nm | 512 nm | 44,000 l/mol*cm | – | – | –
3 | CCN(CCCCCC(=O)O)c1ccc2cc3c([o+]c2c1)C=C(Nc1ccccc1)CC3(C)C.[Cl-] [Compound 13, 6-[(6-anilino-8,8-dimethyl-7H-xanthene-10-ium-3-yl)-ethyl-amino]hexanoic Acid Chloride Salt] | 603 nm | 532 nm | 44,000 l/mol*cm | 609 nm | 38,000 l/mol*cm | 526 nm
4 | CCN(CCCCCC(=O)O)c1ccc2cc3c([o+]c2c1)C=C(Nc1ccc2cc(S(=O)(=O)[O-])ccc2c1)CC3(C)C [Compound 15, 6-[[6-[5-carboxypentyl(ethyl)amino]-1,1-dimethyl-2H-xanthene-10-ium-3-yl]amino]naphthalene-2-sulfonate] | 619 nm | 546 nm | 32,000 l/mol*cm | – | – | –
5 | CN(C1=Cc2[o+]c3cc(OCCCCCC(=O)O)ccc3cc2C(C)(C)C1)c1ccccc1.[Cl-] [Compound 18, 6-[[8,8-dimethyl-6-(N-methylanilino)-7H-xanthene-10-ium-3-yl]oxy]hexanoic Acid Chloride Salt] | 520 nm | 452 nm and 469 nm | – | – | – | –
6 | CN(C1=Cc2[o+]c3cc(OCCCCCC(=O)O)c(S(=O)(=O)[O-])cc3cc2C(C)(C)C1)c1ccc(S(=O)(=O)[O-])cc1.[Na+] [Compound 19, 3-(5-carboxypentoxy)-8,8-dimethyl-6-(N-methyl-4-sulfonato-anilino)-7H-xanthene-10-ium-2-sulfonate Sodium Salt] | 522 nm | 465 nm | 18,000 l/mol*cm | 509 nm | 16500 L/mol/cm | 460 nm
7 | CC1=CC(C)(C)N(CCCS(=O)(=O)[O-])c2cc3[o+]c4c(cc3cc21)C(C)(C)CC(NCCCCCC(=O)O)=C4 [Compound 22, 3-[9-(5-carboxypentylamino)-2,2,4,7,7-pentamethyl-8H-chromeno[3,2-g]quinolin-11-ium-1-yl]propane-1-sulfonate] | 589 nm | 531 nm | 39,000 l/mol*cm | 590 nm | 37500 L/mol/cm | 516 nm
8 | CCN(CCCCCC(=O)O)c1ccc2cc3c([o+]c2c1)C=C(Nc1cccc(N(C)C)c1)CC3(C)C.[Cl-] [Compound 26, 6-[[6-[3-(dimethylamino)anilino]-8,8-dimethyl-7H-xanthene-10-ium-3-yl]-ethyl-amino]hexanoic Acid Chloride Salt] | 573 nm | 531 nm | 34,000 l/mol*cm | – | – | –
9 | CCN(CCCCCC(=O)O)c1ccc2cc3c([o+]c2c1)C=C(Nc1ccc(N)cc1)CC3(C)C.[Cl-] [Compound 27, 6-[[6-(4-aminoanilino)-8,8-dimethyl-7H-xanthene-10-ium-3-yl]-ethyl-amino]hexanoic Acid Chloride Salt] | 612 nm | 530 nm | 35,000 l/mol*cm | – | – | –
10 | CCN(CCCCCC(=O)O)c1ccc2cc3c([o+]c2c1)C=C(N(Cc1ccccn1)Cc1ccccn1)CC3(C)C.[Cl-] [Compound 28, 6-[[6-[bis(2-pyridylmethyl)amino]-8,8-dimethyl-7H-xanthene-10-ium-3-yl]-ethyl-amino]hexanoic Acid Chloride Salt] | 593 nm | 531 nm | 28,000 l/mol*cm | – | – | –
